Experimental data published in patent US9409952B2, “Peptide-compound cyclization method” (Chugai Seiyaku Kabushiki Kaisha, priority 2011, dated 2016).
Read-outs that look alike come from different tables or passages of the source. Starred links: 1 amine or outer side, 2 acyl side, 3 side chain; linkers in the order of their positions; H or OH if unused. Positions of bridges follow the written chain, without caps; N, C: chain ends. Non-standard residues stand in square brackets, D forms with d. Residues, ends and D or L forms follow the SMILES beside them. *: point of attachment. Phe(4-(CH2)5CO) = O=C([C@H](Cc1ccc(CCCCCC(=O)[*:3])cc1)N[*:1])[*:2]; Phe(3-(CH2)4CO) = O=C([C@H](Cc1cccc(CCCCC(=O)[*:3])c1)N[*:1])[*:2]; NMePhe(3-Cl) = CN[C@@H](Cc1cccc(Cl)c1)C(=O)O; NMeF = CN[C@@H](Cc1ccccc1)C(=O)O; NMeGABA = CN(CCCC(=O)[*:2])[*:1]; NMeI = CC[C@H](C)[C@H](NC)C(=O)O; NMeβAla = CN(CCC(=O)[*:2])[*:1]; NMeL = CN[C@@H](CC(C)C)C(=O)O; NMeV = CN[C@H](C(=O)O)C(C)C; NMeA = CN[C@@H](C)C(=O)O; Piperidide = C1CCN(*)CC1; dNMeA = CN[C@H](C)C(=O)O; β3hA = C[C@H](N)CC(=O)O; Sar = CNCC(=O)O; tBu = CC(C)(C)*

How the values were obtained:
[1] = PAMPA (parallel artificial membrane permeability assay); format: in vitro ADME; details: PAMPA
Summary of the method: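 Artificial membrane was 10% (w/v) egg lecithin plus 0.5% (w/v) cholesterol in dodecane on a PVDF filter. A 10 mM DMSO stock was added at 0.5% (v/v) to donor buffer (50 mM MOPSO, pH 6.5, 5.0% glycocholic acid). After 18 h at 37 °C, LC/MS or LC/UV gave donor and acceptor levels for Pe.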

[2] = Metabolic stability in human hepatic microsome; format: in vitro ADME; details: microsomes
[3] = membrane permeation rate (Pe), 50 mM MOPSO buffer pH 6.5 with 5.0% glycocholic acid, 37° C., 18 hours, read-out: iPAMPA Pe
[4] = pH 7.4, human hepatic microsome, NADPH(+), read-out: CL NADPH(+)

| SMILES | Papp at 18 hours, 50 µM [1, 3] [×10⁻⁶ cm/s] | microsomal CLint at 1 uM [2, 4] [µL/min/mg] | Papp at 18 hours, 50 µM ([1]; pH 6.5) [×10⁻⁶ cm/s] | microsomal CLint at 1 uM ([2]; human, pH 7.4, CL NADPH(+)) [µL/min/mg] |
| --- | --- | --- | --- | --- |
| CC[C@H](C)[C@@H]1NC(=O)[C@H](C)N(C)C(=O)[C@H](CC(C)C)NC(=O)[C@H]([C@@H](C)O)NC(=O)CNC(=O)[C@@H]2CCCN2C(=O)[C@H](COC(C)(C)C)NC(=O)[C@H](CC(C)C)N(C)C(=O)[C@H](Cc2ccccc2)NC(=O)CCCN(C)C(=O)C[C@@H](C(=O)N2CCCCC2)NC(=O)[C@H](Cc2ccccc2)N(C)C1=O [DP-107] ([NMeGABA]F[NMeL]S(tBu)PGTL[NMeA]I[NMeF]D-Piperidide; lactam N-12) | 23 | 14 | – | – |
| CC[C@H](C)[C@H]1C(=O)N(C)CC(=O)N(C)[C@@H](Cc2ccccc2)C(=O)N[C@H](C(=O)N2CCCCC2)CC(=O)N(C)CCC(=O)N(C)[C@@H](C(C)C)C(=O)N(C)[C@@H](CC(C)C)C(=O)N[C@@H](CC(C)C)C(=O)N[C@@H]([C@@H](C)O)C(=O)N(C)[C@@H](C)C(=O)N[C@@H](Cc2ccccc2)C(=O)N1C [DP-68] ([NMeβAla][NMeV][NMeL]LT[NMeA]F[NMeI][Sar][NMeF]D-Piperidide; lactam N-11) | – | – | 26 | 35 |
| CC[C@H](C)[C@H]1C(=O)N(C)[C@@H](Cc2ccccc2)C(=O)NCC(=O)N(C)[C@@H](Cc2ccccc2)C(=O)N(C)[C@@H](CC(C)C)C(=O)N(C)[C@@H](CC(C)C)C(=O)N[C@H](C(=O)N2CCCCC2)CC(=O)N[C@H](C(C)C)C(=O)N[C@@H]([C@@H](C)O)C(=O)N(C)[C@@H](C)C(=O)N1C [DP-72] ([dV]T[NMeA][NMeI][NMeF]G[NMeF][NMeL][NMeL]D-Piperidide; lactam N-10) | – | – | 27 | 58 |
| CC[C@H](C)[C@@H]1NC(=O)[C@H](Cc2ccccc2)N(C)C(=O)[C@H](Cc2ccccc2)NC(=O)[C@H](CC(C)C)N(C)C(=O)[C@H](C(C)C)NC(=O)[C@H](CC(C)C)NC(=O)[C@H](C)N(C)C(=O)CNC(=O)CCCCc2cccc(c2)C[C@@H](C(=O)N2CCCCC2)NC(=O)[C@H]([C@@H](C)O)NC(=O)[C@H](CC(C)C)NC(=O)[C@H](C)N(C)C1=O [DP-893] (G[NMeA]LV[NMeL]F[NMeF]I[NMeA]LT[Phe(3-(CH2)4CO)]-Piperidide; lactam N-12) | 5.3 | 86 | – | – |
| CC(C)C[C@@H]1NC(=O)CCCCCc2ccc(cc2)C[C@@H](C(=O)N2CCCCC2)NC(=O)[C@H](Cc2ccccc2)N(C)C(=O)[C@H](CC(C)C)N(C)C(=O)CN(C)C(=O)[C@H]([C@@H](C)O)NC(=O)[C@H](C)N(C)C(=O)[C@H](C(C)C)N(C)C(=O)[C@H](C)NC(=O)[C@H](CC(C)C)N(C)C(=O)[C@H](Cc2ccccc2)N(C)C1=O [DP-881] (L[NMeF][NMeL]A[NMeV][NMeA]T[Sar][NMeL][NMeF][Phe(4-(CH2)5CO)]-Piperidide; lactam N-11) | 6.8 | 83 | – | – |
| CC[C@H](C)[C@@H]1NC(=O)CCCN(C)C(=O)C[C@@H](C(=O)N(C)[C@@H](Cc2ccccc2)C(=O)N(C)[C@@H](Cc2ccccc2)C(=O)N[C@@H](C)C(=O)N2CCCCC2)NC(=O)[C@H](C(C)C)N(C)C(=O)[C@H](CC(C)C)N(C)C(=O)[C@H](C)NC(=O)CN(C)C(=O)[C@H]([C@@H](C)O)NC(=O)[C@H](Cc2ccccc2)N(C)C(=O)[C@H](C)N(C)C1=O [DP-392] ([NMeGABA]I[NMeA][NMeF]T[Sar]A[NMeL][NMeV]D[NMeF][NMeF]A-Piperidide; lactam N-10) | 20 | 18 | – | – |
| CC[C@H](C)[C@H](NC(=O)[C@H](CC(C)C)N(C)C(=O)[C@H](CC(C)C)N(C)C(=O)[C@H](Cc1cccc(Cl)c1)N(C)C(=O)[C@@H]1CC(=O)N(C)[C@@H](C)C(=O)N[C@@H](C(C)C)C(=O)N(C)[C@@H](Cc2ccccc2)C(=O)N[C@@H]([C@@H](C)O)C(=O)N2CCC[C@H]2C(=O)N(C)[C@@H](Cc2ccccc2)C(=O)N[C@@H](CC(C)C)C(=O)N1)C(=O)N1CCCCC1 [DP-927] ([NMeA]V[NMeF]TP[NMeF]LD[NMePhe(3-Cl)][NMeL][NMeL]I-Piperidide; lactam N-8) | – | – | 0.1 | 5 |
| CC(C)C[C@H]1C(=O)N(C)[C@@H](CC(C)C)C(=O)N[C@H](C(=O)N(C)[C@@H](Cc2ccccc2)C(=O)N[C@@H](C)C(=O)N2CCCCC2)CC(=O)N[C@@H](C)C(=O)N(C)[C@@H](C)C(=O)N(C)[C@@H](Cc2ccccc2)C(=O)N(C)[C@@H](CC(C)C)C(=O)N[C@@H]([C@@H](C)O)C(=O)N(C)CC(=O)N[C@@H](C(C)C)C(=O)N1C [DP-188] (A[NMeA][NMeF][NMeL]T[Sar]V[NMeL][NMeL]D[NMeF]A-Piperidide; lactam N-10) | 28 | 84 | – | – |
| CC(C)C[C@H]1C(=O)NCC(=O)N[C@H](C(=O)N2CCCCC2)CC(=O)N(C)[C@@H](C)C(=O)N[C@@H]([C@@H](C)O)C(=O)N(C)[C@@H](C)C(=O)N(C)[C@@H](Cc2ccccc2)C(=O)N[C@@H](COC(C)(C)C)C(=O)N(C)[C@@H](Cc2ccccc2)C(=O)N1C [DP-79] ([NMeA]T[NMeA][NMeF]S(tBu)[NMeF][NMeL]GD-Piperidide; lactam N-9) | – | – | 28 | 145 |
| CC[C@H](C)[C@H]1C(=O)NCC(=O)N(C)[C@@H](CC(C)C)C(=O)N[C@@H](CC(C)C)C(=O)N[C@H](C(=O)N2CCCCC2)CC(=O)N(C)[C@@H](C)C(=O)N[C@@H](CC(C)C)C(=O)N(C)[C@@H](C)C(=O)N[C@@H]([C@@H](C)O)C(=O)N2CCC[C@H]2C(=O)N(C)[C@@H](Cc2ccccc2)C(=O)N[C@@H](Cc2ccccc2)C(=O)N1C [DP-220] ([NMeA]L[NMeA]TP[NMeF]F[NMeI]G[NMeL]LD-Piperidide; lactam N-12) | – | – | 33 | 26 |
| CC[C@H](C)[C@H]1C(=O)N[C@@H](C)CC(=O)N(C)[C@H](C)C(=O)N(C)[C@@H](CC(C)C)C(=O)N(C)[C@@H](CC(C)C)C(=O)N[C@@H]([C@@H](C)O)C(=O)N(C)CC(=O)N[C@@H](COC(C)(C)C)C(=O)N(C)[C@@H](CC(C)C)C(=O)N1C [DP-800] (cyclo([NMeI][β3hA][dNMeA][NMeL][NMeL]T[Sar]S(tBu)[NMeL])) | 25 | 58 | – | – |
| CC[C@H](C)[C@@H]1NC(=O)[C@H](C)N(C)C(=O)[C@@H](C)N(C)C(=O)C[C@H](C)NC(=O)[C@H](CC(C)C)N(C)C(=O)[C@H](C)N(C)C(=O)[C@H](Cc2ccccc2)N(C)C(=O)[C@H]([C@@H](C)O)NC(=O)[C@H](Cc2ccccc2)N(C)C(=O)[C@H](CC(C)C)N(C)C1=O [DP-783] (cyclo(I[NMeL][NMeF]T[NMeF][NMeA][NMeL][β3hA][dNMeA][NMeA])) | – | – | 31 | 269 |
| CC(C)C[C@@H](C(=O)N[C@@H](C)C(=O)N1CCCCC1)N(C)C(=O)[C@H](C)N(C)C(=O)[C@@H]1CC(=O)N[C@H](C(C)C)C(=O)N(C)[C@@H](C)C(=O)N(C)[C@@H](CC(C)C)C(=O)N(C)[C@@H](CC(C)C)C(=O)N(C)CC(=O)N(C)[C@@H](Cc2ccccc2)C(=O)N[C@@H](C)C(=O)N(C)[C@@H](Cc2ccccc2)C(=O)N(C)[C@@H](CC(C)C)C(=O)N[C@@H]([C@@H](C)O)C(=O)N1 [DP-582] ([dV][NMeA][NMeL][NMeL][Sar][NMeF]A[NMeF][NMeL]TD[NMeA][NMeL]A-Piperidide; lactam N-11) | 21 | 12 | – | – |
| CC(C)C[C@H]1C(=O)N(C)[C@@H](C)C(=O)N[C@H](C(=O)N2CCCCC2)CC(=O)N(C)[C@@H](C)C(=O)N(C)[C@@H](C)C(=O)N[C@@H](C)C(=O)N(C)[C@@H](C)C(=O)N(C)[C@@H](CC(C)C)C(=O)N(C)[C@@H](Cc2ccccc2)C(=O)N[C@@H]([C@@H](C)O)C(=O)N(C)[C@@H](C)C(=O)N1C [DP-480] ([NMeA][NMeA]A[NMeA][NMeL][NMeF]T[NMeA][NMeL][NMeA]D-Piperidide; lactam N-11) | 6.6 | 15 | – | – |
| CC(C)C[C@@H]1NC(=O)[C@H](CC(C)C)N(C)C(=O)[C@H](C)NC(=O)[C@H](C(C)C)N(C)C(=O)[C@H](Cc2ccccc2)NC(=O)CN(C)C(=O)[C@H]([C@@H](C)O)NC(=O)[C@H](C)N(C)C(=O)[C@H](CC(C)C)N(C)C(=O)[C@@H](C)NC(=O)C[C@H](C)NC1=O [DP-764] (cyclo(A[NMeL]L[β3hA][dA][NMeL][NMeA]T[Sar]F[NMeV])) | 5 | 27 | – | – |
| CC(C)C[C@H]1C(=O)N[C@@H](COC(C)(C)C)C(=O)N(C)[C@@H](Cc2ccccc2)C(=O)N(C)[C@@H](C)C(=O)N[C@@H](Cc2ccccc2)C(=O)N(C)[C@@H](C(C)C)C(=O)N[C@H](C(=O)N2CCCCC2)Cc2ccc(cc2)CCCCCC(=O)N[C@@H]([C@@H](C)O)C(=O)NCC(=O)N1C [DP-848] (TG[NMeL]S(tBu)[NMeF][NMeA]F[NMeV][Phe(4-(CH2)5CO)]-Piperidide; lactam N-9) | 30 | 148 | – | – |
| CC(C)C[C@H]1C(=O)N(C)[C@@H](C)C(=O)N[C@H](C(=O)N(C)[C@@H](Cc2ccccc2)C(=O)N[C@@H](C)C(=O)N2CCCCC2)CC(=O)N(C)[C@@H](C)C(=O)N(C)[C@@H](Cc2ccccc2)C(=O)N(C)[C@@H](C)C(=O)N[C@@H]([C@@H](C)O)C(=O)N(C)[C@@H](C)C(=O)N[C@@H](C(C)C)C(=O)N1C [DP-357] ([NMeA][NMeF][NMeA]T[NMeA]V[NMeL][NMeA]D[NMeF]A-Piperidide; lactam N-9) | 14 | 56 | – | – |
